Test results: article PMC7367369, “A small library of chalcones induce liver cancer cell death through Akt phosphorylation inhibition” (Scientific Reports, 2020)
Read-outs that look alike come from different tables or passages of the source.

Columns and labels:
Type in all cases: cell-based, human
Hep3B = assay: NCI-60 sulforhodamine B (SRB) cytotoxicity assay, Hep3B; details: Homo sapiens, Hep3B; SRB, 72 h, 2.5–40 μM, triplicate; read-out: IC50 Hep3B
Protocol: (§1) The bioactivities of the synthesized chalcones were assessed on human liver cancer cell lines and on DPSCs with NCI-SRB assay in vitro. DPSCs used to asses the bioactivity of chalcones on untransformed control cells with the potential of hepatic lineage. […] We also included 5-Fluorouracil which is used in clinics for gastrointestinal cancers and Sorafenib. All results were normalized to DMSO negative control measurements. The experiment was performed in triplicate.
(§2) Well differentiated human primary liver cancer cell lines Huh7, HepG2 and Hep3B, and poorly differentiated Mahlavu, FOCUS and SNU475 HCC cells were cultured in Dulbecco’s Modified Eagle’s Standard (DMEM) medium supplemented with 10% Fetal Bovine Serum (FBS), 100 units/mL penicillin and 100 µg/mL streptomycin (Gibco, Invitrogen, Carlsbad, CA, USA). 0.1 mM nonessential amino acids (NEAA) which are specific to HCC cell lines also added to culture media. Cells were cultured in a 5% CO2 incubator at 37^∘C
(§3) Primary liver cancer cells Huh7, HepG2, Hep3B, Mahlavu, FOCUS, Snu475 along with hepatic progenitor Dental pulp stem cells were seeded into 96-well plates (1,000–3,000 HCC cell/well and 10,000 cells DPSC/well ) for 24 h. The cells were then treated with increasing concentrations of the chalcones ( 2.5-40μM ). DMSO (AppliChem Biochemica, Darmstadt, Germany) was used as negative control. The growth has stopped at the end of 72 h by fixing cold with 10% (v/v) trichloroacetic acid (Merck, Schuchardt, Germany). Cells were then stained with 0.4% (m/v) of sulforhodamine (Sigma-Aldrich, St. Louis, USA) in 1% acetic acid solution. […] All experiments were done in triplicate.

[1] = tested on: dental pulp stem cells (DPSC); assay: NCI-60 sulforhodamine B (SRB) cytotoxicity assay, dental pulp stem cells; details: Homo sapiens; SRB, 72 h, 2.5–40 μM, triplicate; untransformed control cells; read-out: IC50 DPSC
Protocol: as §1
Dental pulp stem cells (DPSCs) were isolated from anonymised unidentified healthy intact wisdom tooth. DPSCs were isolated within few hours upon wisdom teeth surgery from patients above 18 years old. All were informed about the procedures, and their consents were obtained. Teeth were broken carefully in order to reach the dental pulp area. […] Then, the cells were seeded onto flasks in 10ml DMEM-F12 media (Lonza) supplemented with 1% penicillin/streptomycin solution (Hyclone) and 15% FBS (Fetal Bovine Serum,Hyclone, Logan, UT, USA) and cultured in a 5% CO2 incubator at 37^∘C .
as §3

Huh7 = assay: NCI-60 sulforhodamine B (SRB) cytotoxicity assay, Huh7; details: Homo sapiens, read-out: IC50 Huh7
Protocol: as §1, §2
Primary liver cancer cells Huh7, HepG2, Hep3B, Mahlavu, FOCUS, Snu475 along with hepatic progenitor Dental pulp stem cells were seeded into 96-well plates (1,000–3,000 HCC cell/well and 10,000 cells DPSC/well ) for 24 h. The cells were then treated with increasing concentrations of the chalcones ( 2.5-40μM ). DMSO (AppliChem Biochemica, Darmstadt, Germany) was used as negative control. The growth has stopped at the end of 72 h by fixing cold with 10% (v/v) trichloroacetic acid (Merck, Schuchardt, Germany). Cells were then stained with 0.4% (m/v) of sulforhodamine (Sigma-Aldrich, St. Louis, USA) in 1% acetic acid solution. The absorbency values were acquired at 515 nm. All experiments were done in triplicate.

[2] = tested on: pAkt (Ser473) in Mahlavu cells; assay: Western blot, phosphorylated Akt levels; details: IC50 concentrations (Fig. 2), 24 h
Protocol: Figure 4 Proteins targeted by the compounds. Human liver cancer cells (Mahlavu) were treated with the IC50 concentrations of the selected compounds or DMSO control for 24 h. […] (B–D) Quantification of the results using ImageJ software. (E) Schematic representation of the molecular mechanism of action of the compounds. Blocked signaling is crossed.
In order to investigate the significant bioactivity of the chalcones 1, 9 and 11 on human liver cancer cell line Mahlavu which has an hyperactive PI3K/Akt pathway due to PTEN-deficiency[13], we analyzed the effect of the chalcones on the active phosphorylated Akt levels in this cell line.
Poorly differentiated liver cancer cell line Mahlavu cells were cultured in 100 mm culture dish for 24 h. […] Anti-PARP antibody (Cell Signaling, 9532), pAkt (Ser473) antibody (Cell Signaling, 9271), Akt antibody (Cell Signaling, 9272), pNFkB-p65 (Ser468) antibody (Snat Cruz, sc101750), p21 antibody (Millipore, 05345), pRb (Ser807/811) antibody (Cell Signaling, 9308), Rb antibody (Santa Cruz, sc102), actin antibody (Sigma, A5441) and calnexin antibody (Sigma, C4731) were used as primary antibodies. Anti-rabbit (6154) and anti-mouse (0168) secondary antibodies were used. ImageJ tool ([42]) used for protein band intensity comparison. Original Full length blots are given as Supplementary Information.

SNU475 = assay: NCI-60 sulforhodamine B (SRB) cytotoxicity assay, SNU475; details: Homo sapiens, SNU-475; SRB, 72 h, 2.5–40 μM, triplicate; read-out: IC50 SNU475
Protocol: as §1, §2, §3

HepG2 = assay: NCI-60 sulforhodamine B (SRB) cytotoxicity assay, HepG2; details: Homo sapiens, HepG2; SRB, 72 h, 2.5–40 μM, triplicate; read-out: IC50 HepG2
Protocol: as §1, §2, §3

[3] = Huh-7, SRB, 72 h, 2.5–40 μM, triplicate

Row | Structure (SMILES) | IC50 (Hep3B) [µM] | IC50 [1] [µM] | IC50 (Huh7; Huh-7, 72 h) [µM] | levels of pAkt [2] | IC50 (SNU475) [µM] | IC50 (HepG2) [µM] | IC50 (Huh7; [3]) [µM]
1 | O=C(/C=C/c1ccccc1)c1ccccc1 [compound 9] | 7.3 | 25.7 | 5.3 | decrease in the levels of pAkt | 5 | 7.3 | 
2 | O=C(/C=C/c1ccc(Cl)cc1)c1ccccc1 [compound 11] | 5.9 | 19.1 |  | decrease in the levels of pAkt | 9 | 6.5 | 4.3
3 | COc1ccc(C(=O)/C=C/c2cccc([N+](=O)[O-])c2)cc1 [compound 1] | 6.2 | > 40 |  | decrease in the levels of pAkt | 3 | 4.2 | < 2.5
